Results on eleven compounds are retold here after ChEMBL document CHEMBL1201862, “PubChem BioAssay data set” (2004).

Common to all, as to experiment: NCI-60 cell line screen, 48 h
Assay [1] has as its system A498.
The subject of assay [2] is A549.
Assay [3] concerns ACHN.
The test system of assay [4] is DU-145.
The test system of assay [5] is HOP-92.
The test system of assay [6] is IGROV-1.
Assay [7] has as its system K562.
Assay [8] relates to M14.
In assay [9] the test system is MDA-MB-231.
Assay [10] deals with NCI-H460.
For assay [11], the system named is NCI/ADR-RES.
For assay [12], the system named is OVCAR-4.
In assay [13] the test system is OVCAR-8.
The test system of assay [14] is RXF 393.
Assay [15] has as its system SF-295.
Assay [16] deals with SK-MEL-28.
For assay [17], the system named is SN12C.
For assay [18], the system named is SR.
The subject of assay [19] is T47D.
For assay [20], the system named is MDA-N.

Where “and” joins values, the source holds several entries; their conditions need not be identical. Equal values may be shown once.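 Interpolation was linear, between the two tested concentrations surrounding the appropriate level; five concentrations were tested over 48 hours in 96-well plates. At the GI50, growth is halved.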 Calls of active or inactive are those of the source. Cut-off read from the data, not from the text of the source: active = GI50 up to about 1.1 µM and inactive = higher.

For the compound `O=[N+]([O-])C[C@@]12O[C@]3(O)C4C5CC(C6C5C3C61)C42` (some centres not stated), the GI50 in assay [1], in assay [2], in [3], in assay [4], in assay [5] and in assay [6] was > 100 µM (inactive) in each case. The GI50 in [7], in assay [8], in assay [9], in [10], in assay [11] and in assay [12] was > 100 µM (inactive) in each case. For the same compound, the GI50 in assay [13] is > 100 µM (inactive); in [14] it was > 100 µM (inactive); in assay [15], > 100 µM (inactive); in assay [16] it was > 100 µM (inactive); in [17], > 100 µM (inactive); in [18], 80.2 µM (inactive). In assay [19], the GI50 was > 100 µM (inactive).
As for `C1=CCC[C@@H]2CN3CCCC/C=C\CCCC[C@H]4C[C@H](CN(CCCCCCCC1)C4)[C@H]2CC3`, the GI50 in assay [1] is 12.3 µM (inactive); in assay [2], 9.2 µM (inactive); in assay [3], 9.68 µM (inactive); in assay [4], 18.2 µM (inactive); in assay [6], 10.2 µM (inactive); in assay [7], 9.79 µM (inactive). The GI50 in [8] is 8.97 µM (inactive); in assay [9], 9.04 µM (inactive); in [20], 8.79 µM (inactive); in assay [10], 9.75 µM (inactive); in assay [12], 12.2 µM (inactive); in [13], 9.55 µM (inactive). For the same compound, the GI50 in assay [15] was 9.27 µM (inactive); in assay [16], 7.93 µM (inactive); in assay [17], 12.5 µM (inactive); in assay [18], 9.25 µM (inactive); in assay [19], 12.7 µM (inactive).
Regarding `N=C(N)N/N=C/c1c(-c2ccccc2[N+](=O)[O-])nc2sccn12`, the GI50 in assay [1] was 18.8 µM (inactive); in assay [2], 34.1 µM (inactive); in assay [3] it was 39.3 µM (inactive); in [4], 48.2 µM (inactive); in [5], 27.1 µM (inactive); in assay [6] it was 37.6 µM (inactive). The GI50 in assay [7] was 14.1 µM (inactive); in assay [8], 16.7 µM (inactive); in assay [9] it was 16.1 µM (inactive); in assay [10], 19.1 µM (inactive); in [11], > 100 µM (inactive); in assay [12], 45.9 µM (inactive). Moreover, the GI50 in assay [13] is 32.2 µM (inactive); in assay [14], 12.6 µM (inactive); in [15] it was 22 µM (inactive); in assay [16], 30.8 µM (inactive); in [17] it was 32.5 µM (inactive); in assay [18], 14.4 µM (inactive). For the same compound, in assay [19], the GI50 is 18.3 µM (inactive).
With `CCOc1ccc(N/C(=C(/C(Cl)=C(/Cl)NCCN)[N+](=O)[O-])n2nnc3ccccc32)cc1`, the GI50 in assay [1] was 56.8 µM (inactive); in assay [2], > 100 µM (inactive); in assay [3] it was 17.9 µM (inactive); in assay [7] it was 26.8 µM (inactive); in assay [8], 43.9 µM (inactive); in [9], 25.9 µM (inactive). Moreover, the GI50 in [20] is 58.1 µM (inactive); in assay [10], > 100 µM (inactive); in assay [11] it was 49.5 µM (inactive); in [12] it was 30.6 µM (inactive); in [13], 15 µM (inactive); in [15], 70.5 µM (inactive). Also, the GI50 in assay [16] is 27.9 µM (inactive); in [17] it was 35.6 µM (inactive); in assay [19], 32.3 µM (inactive).
As to `COc1cc(/C=C2\N=C(c3ccccc3)N(c3nc4c(Cl)cc(Cl)cc4s3)C2=O)ccc1O`, the GI50 in [1] was 17.8 µM (inactive); in assay [2] it was 30.8 µM (inactive); in assay [3], 25.8 µM (inactive); in [4], 34.8 µM (inactive); in [5], 21.3 µM (inactive); in assay [6], 29.1 µM (inactive). In addition, the GI50 in assay [7] is 24.8 µM (inactive); in assay [8], 40.5 µM (inactive); in assay [9], 25.8 µM (inactive); in assay [10], 28.3 µM (inactive); in assay [11], 31 µM (inactive); in assay [12], 29.2 µM (inactive). Further, the GI50 was 31.8 µM (inactive) in assay [13]; 20.9 µM (inactive) in [14]; 34.4 µM (inactive) in [15]; 52 µM (inactive) in [16]; 22.2 µM (inactive) in [17]; 11.1 µM (inactive) in assay [18]. The GI50 in assay [19] is 24.8 µM (inactive).
Regarding `COc1cc2c(cc1OC)[C@H]1CN3CCC[C@H]3C=C1c1ccc(OC)c(O)c1-2`, the GI50 is < 0.0001 µM (active) in [1]; 0.000598 µM (active) in [2]; 0.000566 µM (active) in assay [3]; 0.00342 µM (active) in assay [4]; < 0.0001 µM (active) in [5]; 0.000661 µM (active) in [6]. Further, the GI50 in assay [7] is 0.000512 µM (active); in [8] it was 0.00048 µM (active); in [9], 0.00378 µM (active); in assay [20], 0.00346 µM (active); in [10] it was 0.000558 µM (active); in [12], 0.00031 µM (active). For the same compound, the GI50 is 0.000557 µM (active) in assay [13]; 0.00667 µM (active) in assay [14]; < 0.0001 µM (active) in [15]; 0.0006 µM (active) in assay [16]; 0.000531 µM (active) in assay [17]; 0.00059 µM (active) in [18]. For the same compound, the GI50 in assay [19] is 0.00337 µM (active).
As for `COc1ccc(/C=C2\CCC(CN(C)C)C2=O)cc1OC` (configuration not stated), the GI50 is 14.6 µM (inactive) in assay [1]; 17.2 µM (inactive) in assay [2]; 7 µM (inactive) in [3]; 8.24 µM (inactive) in assay [4]; 5.69 µM (inactive) in assay [5]; 13.1 µM (inactive) in assay [6]. The GI50 in [7] was 1.17 µM (inactive); in assay [8] it was 6.87 µM (inactive); in assay [9], 2.35 µM (inactive); in assay [10] it was 11.1 µM (inactive); in assay [11], 2.49 µM (inactive); in [12], 7.64 µM (inactive). The GI50 in assay [13] was 2.9 µM (inactive); in [14], 1.94 µM (inactive); in assay [15], 15.1 µM (inactive); in assay [16], 5.48 µM (inactive); in assay [17], 3.43 µM (inactive); in [18], 1.86 µM (inactive). Besides, the GI50 in assay [19] was 5.41 µM (inactive).
As for `CC(=O)OCC1OC(n2c(N)c(C#N)c(C)c(C#N)c2=S)C(OC(C)=O)C(OC(C)=O)C1OC(C)=O` (configuration not stated), the GI50 in [1] is > 100 µM (inactive); in assay [2], > 100 µM (inactive); in assay [3], > 100 µM (inactive); in assay [4], > 100 µM (inactive); in assay [6], > 100 µM (inactive); in assay [8], 46.3 µM (inactive) and 80.9 µM (inactive). For the same compound, the GI50 in assay [20], in assay [10], in assay [11], in assay [12], in assay [13] and in assay [14] was > 100 µM (inactive) in each case. Besides, the GI50 in assay [15], in assay [16], in assay [17] and in assay [19] was > 100 µM (inactive) each time.
Consider `C/C(=N\Nc1nc2ccccc2n1C)c1cnccn1`, for which the GI50 in assay [1] is 0.684 µM (active); in assay [2], 0.218 µM (active); in assay [3] it was 0.065 µM (active); in assay [5], 0.227 µM (active); in [6] it was 0.0435 µM (active); in assay [7] it was < 0.0316 µM (active). Moreover, the GI50 in assay [8] is 0.064 µM (active); in assay [9] it was 0.044 µM (active); in assay [20], 0.753 µM (active); in [10] it was 0.223 µM (active); in assay [11], 0.164 µM (active); in assay [12] it was 0.0504 µM (active). Also, the GI50 is 0.0615 µM (active) in assay [13]; 1.23 µM (inactive) in assay [14]; 0.367 µM (active) in [15]; 0.565 µM (active) in assay [16]; 0.0395 µM (active) in assay [17]; 0.0649 µM (active) in [18]. Moreover, the GI50 in [19] was 0.0702 µM (active).
`COc1ccc(C(=O)c2nc3ccccc3nc2N2CCN(c3ccccc3)CC2)cc1OC`: the GI50 in assay [1], in [2], in assay [3], in [4], in assay [5] and in [6] was > 100 µM (inactive) throughout. The GI50 in assay [7], in assay [8], in assay [20], in assay [10], in assay [11] and in [12] was > 100 µM (inactive) each time. Also, the GI50 in [13], in assay [14], in [15], in assay [16], in [18] and in [19] was > 100 µM (inactive) throughout.
As to `O=C(CSCC(=O)N/N=C\c1ccccc1F)N/N=C\c1ccccc1F`, the GI50 in [1], in [2], in assay [3], in assay [4], in [5] and in [6] was > 100 µM (inactive) each time. The GI50 is > 100 µM (inactive) in assay [8]; > 100 µM (inactive) in assay [9]; 99.5 µM (inactive) in assay [10]; 14 µM (inactive) in assay [11]; > 100 µM (inactive) in assay [12]; 49.9 µM (inactive) in assay [13]. Further, the GI50 is > 100 µM (inactive) in [14]; 41.7 µM (inactive) in assay [15]; > 100 µM (inactive) in assay [16]; > 100 µM (inactive) in [17]; 77.6 µM (inactive) in [19].
